Assay results taken from ChEMBL document CHEMBL1201861, “Genomics of Drug Sensitity in Cancer screening data, Wellcome Trust Sanger Institute”.
pIC50: −log10 of the molar value.

What was measured:
Test in all cases: cells
[1] = tested on: OCI-AML2; type: functional, cell-based; conditions: Homo sapiens;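 further: growth inhibition of OCI-AML2 cells, read out with a cell viability assay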
Description: SANGER: Inhibition of human OCI-AML2 cell growth in a cell viability assay.

[2] = tested on: HH; type: functional, cell-based; conditions: Homo sapiens
Description: SANGER: Inhibition of human HH cell growth in a cell viability assay.

[3] = tested on: SK-NEP-1; type: functional, cell-based; conditions: Homo sapiens;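 further: growth inhibition of human SK-NEP-1 cells, read out by a cell viability assay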
Description: SANGER: Inhibition of human SK-NEP-1 cell growth in a cell viability assay.

[4] = tested on: JAR; type: functional, cell-based, Homo sapiens; conditions: Homo sapiens, JAR;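 further: growth inhibition of human JAR cells determined with a cell viability assay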
[5] = tested on: BE-13; type: functional, cell-based; conditions: Homo sapiens;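 further: growth inhibition of human BE-13 cells, measured with a cell viability assay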
Description: SANGER: Inhibition of human BE-13 cell growth in a cell viability assay.

[6] = tested on: HAL-01; type: functional, cell-based; conditions: Homo sapiens;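 further: growth inhibition of human HAL-01 cells, read out with a cell viability assay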
Description: SANGER: Inhibition of human HAL-01 cell growth in a cell viability assay.

[7] = tested on: KM-H2; type: functional, cell-based; conditions: Homo sapiens;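 further: growth inhibition of KM-H2 cells, read out by a cell viability assay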
Description: SANGER: Inhibition of human KM-H2 cell growth in a cell viability assay.

[8] = tested on: OMC-1; type: functional, cell-based, Homo sapiens; conditions: Homo sapiens, OMC-1;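 further: growth inhibition of the OMC-1 cell line, measured by a cell viability assay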
Description: SANGER: Inhibition of human OMC-1 cell growth in a cell viability assay.

[9] = tested on: NTERA-2-cl-D1; type: functional, cell-based, Homo sapiens; conditions: Homo sapiens, NTERA-2-cl-D1;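 further: inhibition of cell growth, measured with a cell viability assay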
Description: SANGER: Inhibition of human NTERA-S-cl-D1 cell growth in a cell viability assay.

[10] = tested on: MC116; type: functional, cell-based; conditions: Homo sapiens;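 further: growth inhibition of MC116 cells, read out with a cell viability assay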
Description: SANGER: Inhibition of human MC116 cell growth in a cell viability assay.

[11] = tested on: TE-10; type: functional, cell-based, Homo sapiens; conditions: Homo sapiens, TE-10;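 further: growth inhibition of TE-10 cells, measured by a cell viability assay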
Description: SANGER: Inhibition of human TE-10 cell growth in a cell viability assay.

[12] = tested on: IST-SL1; type: functional, cell-based, Homo sapiens; conditions: Homo sapiens, IST-SL1;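 further: growth inhibition of human IST-SL1 cells, read out with a cell viability assay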
Description: SANGER: Inhibition of human IST-SL1 cell growth in a cell viability assay.

[13] = tested on: KS-1; type: functional, cell-based, Homo sapiens; conditions: Homo sapiens, KS-1;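 further: growth inhibition of KS-1 cells, read out with a cell viability assay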
Description: SANGER: Inhibition of human KS-1 cell growth in a cell viability assay.

[14] = tested on: LAMA-84; type: functional, cell-based; conditions: Homo sapiens;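 further: growth inhibition of LAMA-84 cells, read out with a cell viability assay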
Description: SANGER: Inhibition of human LAMA-84 cell growth in a cell viability assay.

[15] = tested on: NB7; type: functional, cell-based; conditions: Homo sapiens;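 further: growth inhibition of NB7 cells, read out with a cell viability assay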
Description: SANGER: Inhibition of human NB7 cell growth in a cell viability assay.

[16] = tested on: OVCAR-4; type: functional, cell-based, Homo sapiens; conditions: Homo sapiens, OVCAR-4;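 further: growth inhibition of human OVCAR-4 cells, measured with a cell viability assay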
Description: SANGER: Inhibition of human OVCAR-4 cell growth in a cell viability assay.

[17] = tested on: UACC-257; type: functional, cell-based, Homo sapiens; conditions: Homo sapiens, UACC-257
Description: SANGER: Inhibition of human UACC-257 cell growth in a cell viability assay.

[18] = tested on: CTV-1; type: functional, cell-based; conditions: Homo sapiens;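 further: growth inhibition of the cell line, read out with a cell viability assay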
Description: SANGER: Inhibition of human CTV-1 cell growth in a cell viability assay.

[19] = tested on: U-87 MG; type: functional, cell-based, U-87MG ATCC; conditions: Homo sapiens;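 further: growth inhibition of the cells measured with a viability assay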
Description: SANGER: Inhibition of human U-87-MG cell growth in a cell viability assay.

[20] = tested on: LS-411N; type: functional, cell-based, Homo sapiens; conditions: Homo sapiens, LS-411N
[21] = tested on: KU812 cell line; type: functional, cell-based; conditions: Homo sapiens;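 further: growth inhibition of KU812 cells, read out with a cell viability assay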
Description: SANGER: Inhibition of human KU812 cell growth in a cell viability assay.

[22] = tested on: KARPAS-299; type: functional, cell-based; conditions: Homo sapiens
Description: SANGER: Inhibition of human KARPAS-299 cell growth in a cell viability assay.

[23] = tested on: KM12; type: functional, cell-based, Homo sapiens; conditions: Homo sapiens, KM12;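 further: KM12 cell growth inhibition, read out with a cell viability assay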
Description: SANGER: Inhibition of human KM12 cell growth in a cell viability assay.

[24] = tested on: 697; type: functional, cell-based; conditions: Homo sapiens
Description: SANGER: Inhibition of human 697 cell growth in a cell viability assay.

[25] = tested on: NCI-H1581; type: functional, cell-based, Homo sapiens; conditions: Homo sapiens, NCI-H1581;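 further: cell growth inhibition read out by a viability assay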
Description: SANGER: Inhibition of human NCI-H1581 cell growth in a cell viability assay.

[26] = tested on: MFM-223; type: functional, cell-based, Homo sapiens; conditions: Homo sapiens, MFM-223
Description: SANGER: Inhibition of human MFM-223 cell growth in a cell viability assay.

[27] = tested on: IA-LM; type: functional, cell-based, Homo sapiens; conditions: Homo sapiens, IA-LM;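 further: cell viability assay measuring growth inhibition of human IA-LM cells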
Description: SANGER: Inhibition of human IA-LM cell growth in a cell viability assay.

Compound: C=C1C(=O)O[C@@H]2C3O[C@]3(C)CC/C=C(\C)CC[C@@H]12 (some centres not stated)
- pIC50 [1]: < 5.30
- pIC50 [2]: < 5.30
- pIC50 [3]: < 5.30
- pIC50 [4]: < 5.30
- pIC50 [5]: < 5.30
- pIC50 [6]: < 5.30
- pIC50 [7]: < 5.30
- pIC50 [8]: < 5.30
- pIC50 [9]: < 5.30
- pIC50 [10]: < 5.30
- pIC50 [11]: < 5.30
- pIC50 [12]: < 5.30
- pIC50 [13]: < 5.30
- pIC50 [14]: < 5.30
- pIC50 [15]: < 5.30
- pIC50 [16]: < 5.30
- pIC50 [17]: < 5.30
- pIC50 [18]: < 5.30
- pIC50 [19]: < 5.30
- pIC50 [20]: < 5.30
- pIC50 [21]: < 5.30
- pIC50 [22]: < 5.30
- pIC50 [23]: < 5.30
- pIC50 [24]: 6.33
- pIC50 [25]: < 5.30
- pIC50 [26]: < 5.30

Compound: CC1=C2C[C@H]3[C@@H](CC=C4C[C@@H](O)CC[C@@]43C)[C@@H]2CC[C@]12O[C@@H]1C[C@H](C)CN[C@H]1[C@H]2C [CYCLOPAMINE]
- pIC50 [1]: < 4.80
- pIC50 [2]: < 4.80
- pIC50 [3]: < 4.80
- pIC50 [4]: < 4.80
- pIC50 [5]: < 4.80
- pIC50 [6]: < 4.80
- pIC50 [7]: < 4.80
- pIC50 [8]: < 4.80
- pIC50 [9]: < 4.80
- pIC50 [10]: < 4.80
- pIC50 [11]: < 4.80
- pIC50 [12]: < 4.80
- pIC50 [13]: < 4.80
- pIC50 [14]: < 4.80
- pIC50 [15]: < 4.80
- pIC50 [16]: < 4.80
- pIC50 [17]: < 4.80
- pIC50 [18]: < 4.80
- pIC50 [19]: < 4.80
- pIC50 [20]: < 4.80
- pIC50 [21]: < 4.80
- pIC50 [22]: < 4.80
- pIC50 [23]: < 4.80
- pIC50 [24]: < 4.80
- pIC50 [25]: < 4.80
- pIC50 [26]: < 4.80

Compound: CS(=O)(=O)CCNCc1ccc(-c2ccc3ncnc(Nc4ccc(OCc5cccc(F)c5)c(Cl)c4)c3c2)o1 [LAPATINIB]
- pIC50 [1]: < 5.70
- pIC50 [2]: < 5.70
- pIC50 [3]: < 5.70
- pIC50 [4]: < 5.70
- pIC50 [5]: < 5.70
- pIC50 [6]: < 5.70
- pIC50 [7]: < 5.70
- pIC50 [8]: < 5.70
- pIC50 [9]: < 5.70
- pIC50 [10]: < 5.70
- pIC50 [11]: < 5.70
- pIC50 [12]: < 5.70
- pIC50 [13]: < 5.70
- pIC50 [14]: < 5.70
- pIC50 [15]: < 5.70
- pIC50 [16]: < 5.70
- pIC50 [17]: < 5.70
- pIC50 [18]: < 5.70
- pIC50 [19]: < 5.70
- pIC50 [20]: < 5.70
- pIC50 [21]: < 5.70
- pIC50 [22]: < 5.70
- pIC50 [23]: < 5.70
- pIC50 [24]: < 5.70
- pIC50 [25]: < 5.70
- pIC50 [26]: < 5.70

Compound: CCc1nc(N)nc(N)c1-c1ccc(Cl)cc1 [PYRIMETHAMINE]
- pIC50 [1]: 5.07
- pIC50 [2]: < 4.70
- pIC50 [3]: 5.91
- pIC50 [4]: < 4.70
- pIC50 [5]: 5.11
- pIC50 [6]: 5.32
- pIC50 [7]: 4.92
- pIC50 [8]: < 4.70
- pIC50 [9]: < 4.70
- pIC50 [10]: 4.75
- pIC50 [11]: < 4.70
- pIC50 [12]: 4.79
- pIC50 [13]: < 4.70
- pIC50 [14]: 5.57
- pIC50 [15]: < 4.70
- pIC50 [16]: 5.38
- pIC50 [17]: 5.42
- pIC50 [18]: 5.61
- pIC50 [19]: < 4.70
- pIC50 [20]: 6.08
- pIC50 [21]: 4.81
- pIC50 [22]: < 4.70
- pIC50 [23]: 5.63
- pIC50 [24]: 5.44
- pIC50 [25]: < 4.70
- pIC50 [26]: < 4.70

Compound: O=C(/C=C/c1ccccc1)NC(NC(=S)Nc1cccc2cccnc12)C(Cl)(Cl)Cl (configuration not stated) [SALUBRINAL]
- pIC50 [1]: 4.80
- pIC50 [2]: < 4.80
- pIC50 [3]: < 4.80
- pIC50 [4]: < 4.80
- pIC50 [5]: 5.08
- pIC50 [6]: 5.03
- pIC50 [7]: < 4.80
- pIC50 [8]: < 4.80
- pIC50 [9]: 4.89
- pIC50 [10]: 4.95
- pIC50 [11]: < 4.80
- pIC50 [12]: < 4.80
- pIC50 [13]: < 4.80
- pIC50 [14]: 4.80
- pIC50 [15]: < 4.80
- pIC50 [16]: 4.83
- pIC50 [17]: < 4.80
- pIC50 [18]: < 4.80
- pIC50 [19]: < 4.80
- pIC50 [20]: < 4.80
- pIC50 [21]: < 4.80
- pIC50 [22]: < 4.80
- pIC50 [23]: < 4.80
- pIC50 [24]: 5.40
- pIC50 [25]: < 4.80
- pIC50 [26]: < 4.80

Compound: CN1CCN(CCOc2cc(OC3CCOCC3)c3c(Nc4c(Cl)ccc5c4OCO5)ncnc3c2)CC1 [SARACATINIB]
- pIC50 [1]: < 5.70
- pIC50 [2]: < 5.70
- pIC50 [3]: < 5.70
- pIC50 [4]: < 5.70
- pIC50 [5]: < 5.70
- pIC50 [27]: < 5.70
- pIC50 [6]: < 5.70
- pIC50 [7]: < 5.70
- pIC50 [8]: < 5.70
- pIC50 [9]: < 5.70
- pIC50 [10]: < 5.70
- pIC50 [11]: 5.78
- pIC50 [12]: < 5.70
- pIC50 [13]: 5.92
- pIC50 [14]: 6.80
- pIC50 [15]: < 5.70
- pIC50 [16]: < 5.70
- pIC50 [17]: < 5.70
- pIC50 [18]: 7.21
- pIC50 [19]: < 5.70
- pIC50 [20]: < 5.70
- pIC50 [21]: < 5.70
- pIC50 [22]: < 5.70
- pIC50 [23]: < 5.70
- pIC50 [24]: < 5.70
- pIC50 [25]: < 5.70
- pIC50 [26]: < 5.70

Compound: CO[C@H]1C[C@@H]2CC[C@@H](C)[C@@](O)(O2)C(=O)C(=O)N2CCCC[C@H]2C(=O)O[C@H]([C@H](C)C[C@@H]2CC[C@@H](O)[C@H](OC)C2)CC(=O)[C@H](C)/C=C(\C)[C@@H](O)[C@@H](OC)C(=O)[C@H](C)C[C@H](C)/C=C/C=C/C=C/1C [SIROLIMUS]
- pIC50 [1]: < 7.00
- pIC50 [2]: 7.94
- pIC50 [3]: 8.06
- pIC50 [4]: < 7.00
- pIC50 [5]: 8.52
- pIC50 [27]: 7.17
- pIC50 [6]: < 7.00
- pIC50 [7]: < 7.00
- pIC50 [8]: < 7.00
- pIC50 [9]: 9.35
- pIC50 [10]: 9.01
- pIC50 [11]: 8.48
- pIC50 [12]: < 7.00
- pIC50 [13]: 8.61
- pIC50 [14]: < 7.00
- pIC50 [15]: < 7.00
- pIC50 [16]: < 7.00
- pIC50 [17]: < 7.00
- pIC50 [18]: < 7.00
- pIC50 [19]: < 7.00
- pIC50 [20]: 7.11
- pIC50 [21]: 8.70
- pIC50 [22]: 7.21
- pIC50 [23]: < 7.00
- pIC50 [24]: 8.20
- pIC50 [25]: < 7.00
- pIC50 [26]: < 7.00

Compound: CNC(=O)c1cc(Oc2ccc(NC(=O)Nc3ccc(Cl)c(C(F)(F)F)c3)cc2)ccn1 [SORAFENIB]
- pIC50 [1]: < 5.40
- pIC50 [2]: < 5.40
- pIC50 [3]: < 5.40
- pIC50 [4]: < 5.40
- pIC50 [5]: 5.57
- pIC50 [6]: < 5.40
- pIC50 [7]: < 5.40
- pIC50 [8]: < 5.40
- pIC50 [9]: < 5.40
- pIC50 [10]: < 5.40
- pIC50 [11]: < 5.40
- pIC50 [12]: < 5.40
- pIC50 [13]: 5.41
- pIC50 [14]: 5.86
- pIC50 [15]: < 5.40
- pIC50 [16]: 5.65
- pIC50 [17]: < 5.40
- pIC50 [18]: < 5.40
- pIC50 [19]: < 5.40
- pIC50 [20]: < 5.40
- pIC50 [21]: < 5.40
- pIC50 [22]: < 5.40
- pIC50 [23]: 5.99
- pIC50 [24]: < 5.40
- pIC50 [25]: < 5.40
- pIC50 [26]: < 5.40

Compound: CCC(=O)N1CCN(c2ccc(-n3c(=O)ccc4cnc5ccc(-c6cnc7ccccc7c6)cc5c43)cc2C(F)(F)F)CC1 [TORIN1]
- pIC50 [1]: 7.54
- pIC50 [2]: 6.87
- pIC50 [3]: 6.79
- pIC50 [4]: 6.94
- pIC50 [5]: 7.42
- pIC50 [27]: 7.54
- pIC50 [6]: 7.12
- pIC50 [7]: < 5.92
- pIC50 [8]: 7.11
- pIC50 [9]: 7.49
- pIC50 [10]: 7.57
- pIC50 [11]: 7.48
- pIC50 [12]: 6.07
- pIC50 [13]: 7.86
- pIC50 [14]: 7.66
- pIC50 [15]: < 5.92
- pIC50 [16]: 7.51
- pIC50 [17]: 7.01
- pIC50 [18]: 7.18
- pIC50 [19]: < 5.92
- pIC50 [20]: 7.84
- pIC50 [21]: 7.89
- pIC50 [22]: 6.91
- pIC50 [23]: 7.12
- pIC50 [24]: 8.20
- pIC50 [25]: 6.53
- pIC50 [26]: < 5.92
